Values joined by “and” are separate entries in the source; they are usually repeats but may differ in a detail not shown here. Equal values may be shown once.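 Values below derive from 48-hour exposures of cells grown in 96-well plates, with endpoints linearly interpolated between the two concentrations bracketing the appropriate inhibition level. At the GI50, growth is halved. TGI denotes the concentration required for complete inhibition of growth.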
Tests used:
Test in all cases: DTP human tumour cell line panel, 48 h
MDA-MB-435 = tested on: MDA-MB-435
HCC-2998 colon = tested on: HCC-2998 colon
MCF7 breast = tested on: MCF7 breast
TK-10 renal = tested on: TK-10 renal
MOLT-4 leukemia = tested on: MOLT-4 leukemia
HS 578T breast = tested on: HS 578T breast

Row | SMILES | GI50 (MDA-MB-435) [µM] | TGI (MDA-MB-435) [µM] | GI50 (HCC-2998 colon) [µM] | TGI (HCC-2998 colon) | GI50 (MCF7 breast) [µM] | TGI (MCF7 breast) [µM] | GI50 (TK-10 renal) [µM] | TGI (TK-10 renal) | GI50 (MOLT-4 leukemia) [µM] | TGI (MOLT-4 leukemia) [µM] | GI50 (HS 578T breast) [µM] | TGI (HS 578T breast)
1 | Cc1ccc2c(c1)Sc1c(ccc3ccccc13)N2 | > 100 | > 100 | 98.7 | > 100 µM | > 100 | > 100 | 12.8 | > 100 µM | 6.82 | > 100 | – | –
2 | O=C(Nc1ccncc1)C(=O)c1cn(S(=O)(=O)c2cccc(F)c2)c2ccccc12 | 0.385 | 4.02 | 2.2 | 89.3 µM | 0.719 | > 100 | 15.7 | > 100 µM | 4.18 | > 100 | 8.31 | > 100 µM
3 | CCOC1Oc2ccc(C)cc2C(=O)/C1=C\Nc1ccc(C(N)=O)cc1 (stereo not drawn) | 20.1 | 50.8 | 20.3 | 39 µM | 25 | > 100 | 15.7 | 36 µM | 46.2 | > 100 | 22.8 | 64.4 µM
4 | C#CCNC(=O)c1cccc2c1cc(C)n2-c1nc2c(c(NCc3ccccc3)n1)CCCC2 | 0.0235 | 0.0656 | 0.0164 | 0.0331 µM | 0.0151 | 0.142 | 0.0345 | 0.111 µM | 0.0229 | 0.075 | 0.0321 | 0.954 µM
5 | Cc1cc(-c2cnn3c(NCC4CC(C)(O)C4)cc(Oc4cccnc4)nc23)ccc1C(=O)NC1CC1 (stereo not drawn) | – | – | – | – | 98.9 | > 100 | 1.98 | > 100 µM | – | – | 4.19 | > 100 µM
6 | CC(C)(CO)N1CCN(C(=S)Nc2ccccc2)CC1 | – | > 100 | – | – | – | > 100 | – | > 100 µM | – | – | – | > 100 µM
7 | O=C1c2ccccc2C(=O)N1CCc1ncc[nH]1 | – | > 100 | – | – | – | > 100 | – | > 100 µM | – | > 100 | – | > 100 µM
8 | COc1ccc2c(c1)CCCN2c1c2ccccc2nc2ccccc12 | – | – | 0.311 | 1.04 µM | 0.316 | 33.2 | 3.38 | > 100 µM | 0.4 | > 100 | 0.314 | 5.86 µM
9 | O=c1cc(-c2ccccc2)oc2cc(OC/C(=N/O)c3ccccc3)ccc12 | > 50 | > 50 | 30.7 | > 50 µM | – | – | 7.18 | 19.9 µM | > 50 | > 50 | – | –
10 | O=C1CCC(N2C(=O)c3ccccc3C2=O)C(=O)N1CO (stereo not drawn) | > 100 | > 100 | – | – | 26.6 | > 100 | > 100 | > 100 µM | 36.2 | > 100 | > 100 | > 100 µM
11 | COc1ccc2c(c1)C(=O)c1c-2n(CCCn2ccnc2)c(=O)c2cc([N+](=O)[O-])ccc12 | – | – | < 0.0194 | 0.267 µM | < 0.01 | > 100 | 0.14 | > 95.8 µM | < 0.01 | – | 2.1 | > 29 µM
12 | CCCCCCCC[C@@H](O)CC(=O)N[C@@H](CC(N)=O)C(=O)N[C@@H](CCC(N)=O)C(=O)N[C@@H](CC(=O)c1cc(C)cc(O)c1C(=O)c1c(O)cccc1O)CC(C)C | – | – | 0.403 | 1.43 µM | 0.539 | > 100 | 0.179 | 1.26 µM | 0.308 | > 100 | 3.46 | 62 µM
13 | CCCCCCCC(=O)OCC/C=C/C1OC1C1OC(=O)/C=C\C=C\c2nc(oc2C)/C=C(/C)CCC2OC2C1OC(=O)NC(C)=O (stereo not drawn) | – | – | 0.0208 | 0.0739 µM | 0.0368 | 0.481 | 0.0391 | 0.232 µM | 0.047 | 1.81 | 0.0776 | 0.221 µM
14 | COc1cc(C(=O)CBr)c(OC)cc1C | – | > 100 | – | – | – | > 100 | – | > 100 µM | – | > 100 | – | > 100 µM
15 | O=C1c2cccc([N+](=O)[O-])c2C(=O)N1c1ncn[nH]1 | – | > 100 | – | – | – | > 100 | – | > 100 µM | – | > 100 | – | > 100 µM
16 | CC(=O)O[C@H]1C(=O)[C@@]2(C)C(C(OC(=O)c3ccccc3)[C@]3(O)CC(OC(=O)[C@H](OC(=O)CCC(=O)O)C(NC(=O)c4ccccc4)c4ccccc4)C(C)=C1C3(C)C)C1(OC(C)=O)COC1C[C@@H]2O (stereo partly drawn) | – | – | – | > 100 µM and 20.3 µM | – | > 100 | – | 97.1 µM and 15.4 µM | – | 1.05 | – | 3.1 µM and 1.57 µM
17 | O=C(Nc1ccc(-c2nc(N3CCOCC3)c3cccn3n2)cc1)Nc1cccnc1 | 0.225 | > 100 | 0.253 | > 100 µM | 0.0483 | 1.49 | – | – | 0.23 | 6.8 | 0.0545 | 0.416 µM
18 | NC(=O)NS(=O)(=O)c1ccc(N2N=C(C(F)(F)F)CC2c2cc(C(F)(F)F)cc(C(F)(F)F)c2)cc1 (stereo not drawn) | 2.57 | 7.16 | 10 | 23.9 µM | 1.85 | 4.86 | 9.25 | 24.8 µM | 4.73 | 55.5 | – | –
